In one test the target is full-length β-catenin (Homo sapiens (Human), UniProt P35222). Description: Streptavidin protein pull-down from SW480 cell lysates. Format: binding. The note with it: 1 μM. The protocol: Pull-Down Experiments. Colorectal cancer SW480 cells (70-80% confluency) in T75 flask were lysed first in 1 mL buffer A containing 50 mM Tris (pH 7.4), 150 mM NaCl, 1% Nonidet P-40, 2 mM EDTA, and protease inhibitors. Cell debris was removed by centrifugation at 10,000 g for 20 min at 4° C. To 500 μL SW480 cell lysates was added 1 or 10 μM Biotin-36 and the mixture was incubated at 4° C. for 3 h. Then, 25 μL Streptavidin Sepharose beads (5-1638, Sigma) were added to the lysate mixture and rotated at 4° C. for 2 h. The lysate mixture was centrifuged at 4000 rpm for 2 min at 4° C. The beads were washed with buffer B (20 mM Tris pH 7.4, 150 mM NaCl, 0.1% NP-40) for 4 times. The beads were resuspended in 60 μL of 2×SDS sample buffer. After boiling, the samples were loaded onto 8% SDS polyacrylamide gel for electrophoretic analysis. Separated proteins were transferred onto nitrocellulose membranes for immunoblot analysis. The antibody against β-catenin (610153, BD Biosciences) were incubated with the membranes. IRDye 680LT goat anti-mouse IgG (827-11080, LiCOR) was used as the secondary antibody. The images were detected by the Odyssey Infrared Imaging System (LiCOR). Experiments were performed in duplicate.
Sequence of full-length β-catenin (P35222 whole entry): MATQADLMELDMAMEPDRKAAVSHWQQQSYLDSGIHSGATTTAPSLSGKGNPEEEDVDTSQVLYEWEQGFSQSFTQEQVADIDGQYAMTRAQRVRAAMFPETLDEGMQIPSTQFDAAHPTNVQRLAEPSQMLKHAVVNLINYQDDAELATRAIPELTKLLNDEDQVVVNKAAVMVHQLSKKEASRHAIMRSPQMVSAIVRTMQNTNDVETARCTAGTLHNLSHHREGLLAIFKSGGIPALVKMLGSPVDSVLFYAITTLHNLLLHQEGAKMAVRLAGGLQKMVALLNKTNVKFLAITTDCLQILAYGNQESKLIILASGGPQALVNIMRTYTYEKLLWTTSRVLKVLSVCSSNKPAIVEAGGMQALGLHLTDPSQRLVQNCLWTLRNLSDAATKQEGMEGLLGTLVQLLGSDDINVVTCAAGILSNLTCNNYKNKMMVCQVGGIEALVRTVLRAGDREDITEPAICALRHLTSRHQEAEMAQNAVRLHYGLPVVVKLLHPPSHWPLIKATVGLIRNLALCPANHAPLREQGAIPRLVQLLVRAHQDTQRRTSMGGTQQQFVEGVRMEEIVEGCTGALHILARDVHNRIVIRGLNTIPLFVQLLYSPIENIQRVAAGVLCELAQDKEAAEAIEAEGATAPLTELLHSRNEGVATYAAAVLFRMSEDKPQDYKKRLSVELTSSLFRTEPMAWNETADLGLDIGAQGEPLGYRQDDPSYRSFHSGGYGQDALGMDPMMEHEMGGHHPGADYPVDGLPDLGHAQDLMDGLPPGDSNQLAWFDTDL

The target in a further test is β-catenin/BCL9 PPI (Homo sapiens (Human), UniProt P35222). The test can be described thus: AlphaScreen competitive inhibition assay of β-catenin/BCL9 PPI. It is filed as binding. The note with it: mean ± standard deviation (n = 3); for Ki: derived from IC50, read-out: Ki ± SD. On the procedure: AlphaScreen Assays of β-Catenin and BCL9 Interaction. Experiments were performed in white opaque 384-well plates from PerkinElmer (Waltham, MA), and the samples were read on a Biotek Synergy 2 plate reader (Winooski, VT) with excitation at 680 nm and emission at 570 nm. The standard AlphaScreen protocol was used with a sensitivity setting of 200. All dilutions were made in 1× assay buffer containing 25 mM Hepes (pH 7.4), 100 mM NaCl, 0.01% Triton X-100 and 0.1% BSA to minimize nonspecific interactions. For the competitive inhibition assays of β-catenin/BCL9 PPI, the negative control (equivalent to 0% inhibition) refers to 5.0 nM biotinylated BCL9, 50 nM His6-tagged β-catenin, and 10 μg/mL donor and acceptor beads in a final volume of 25 μL assay buffer, but no tested inhibitor present. The positive control (equivalent to 100% inhibition) refers to 5.0 nM biotinylated BCL9 and 10 μg/mL donor and acceptor beads in a final volume of 25 μL assay buffer.
Sequence of β-catenin/BCL9 PPI (P35222 whole entry): as above
For the β-catenin/BCL9 assay, 5 nM biotinylated BCL9 and 50 nM His6-tagged β-catenin were incubated in assay buffer for 30 min. Different concentrations of the tested inhibitor were added and incubated in 20 μL assay buffer for another 1 h. All of the assay plates were covered and gently mixed on an orbital shaker. The donor and acceptor beads were then added to the plates to a final concentration of 10 μg/mL in 25 μL assay buffer. The mixture was incubated for 1 h before detection. The IC50 value was determined by nonlinear least-square analysis of GraphPad Prism 8.0. The Ki values were derived from the IC50 values using a method reported by Wang and coworkers.^65 The equation used is Ki=[I]50/([L]50/Kd+[P]0/Kd+1) (Where [I]50 denotes the concentration of the free inhibitor at 50% inhibition, [L]50 is the concentration of the free labeled ligand at 50% inhibition, [P]0 is the concentration of the free protein at 0% inhibition, and Kd is the dissociation constant of the protein-ligand complex). All of the experiments were performed in triplicate and carried out in the presence of 1% DMSO for small-molecule inhibitors. Each compound was assayed at least by three independent experiments. The results were expressed as mean±standard deviation.

Where a name gives a salt, the structure may show the parent alone. A value given as a limit tells only on which side of the number the result lay.

In the case of `CC(C)(C)C1CCC(c2cc(C(=O)N3CCC(Oc4cc(N5CCNCC5)ccc4C#N)CC3)ccc2O[C@@H]2CNC[C@H]2OCCOCCOCCNC(=O)CCCC[C@@H]2SCC3NC(=O)NC32)CC1.O=C(O)C(F)(F)F.O=C(O)C(F)(F)F` (relative stereo) [Biotin-37, trans-N-(2-(2-(2-((4-(2-(cis- and trans-4-(tert-butyl)cyclohexyl)-4-(4-(2-cyano-5-(piperazin-1-yl)phenoxy)piperidine-1-carbonyl)phenoxy)pyrrolidin-3-yl)oxy)ethoxy)ethoxy)ethyl)-5-((4S)-2-oxohexahydro-1H-thieno[3,4-d]imidazol-4-yl)pentanamide ditrifluoroacetic acid], the “binding with β-catenin (pull-down, Western blot)” value on full-length β-catenin is given as “effectively bound with full-length β-catenin”. A word on the Ki: it is a dissociation constant, usually derived from enzyme kinetics or from competition with a known ligand. The IC50 is the concentration that gives 50% inhibition. In the case of `O=C(c1ccc(O[C@H]2CCNC2)c(N2CCCCC2)c1)N1CCC(Oc2cc(F)cc(N3CCNCC3)c2)CC1` [Compound 25, (S)-(4-(3-fluoro-5-(piperazin-1-yl)phenoxy)piperidin-1-yl)(3-(piperidin-1-yl)-4-(pyrrolidin-3-yloxy)phenyl)methanone dihydrochloride], at β-catenin/BCL9 PPI, the Ki was no more than 60 µM and the IC50 was no more than 60 µM. On to `O=C(c1ccc(O[C@H]2CCNC2)c(N2CCC(C(F)(F)F)CC2)c1)N1CCC(Oc2cc(F)cc(N3CCNCC3)c2)CC1` [Compound 26, (S)-(4-(3-fluoro-5-(piperazin-1-yl)phenoxy)piperidin-1-yl)(4-(pyrrolidin-3-yloxy)-3-(4-(trifluoromethyl)piperidin-1-yl)phenyl)methanone dihydrochloride], for which, at β-catenin/BCL9 PPI, the inhibition constant (Ki) was no more than 100 µM and the IC50 is no more than 100 µM. With `CC(C)(C)C1CCN(c2cc(C(=O)N3CCC(Oc4cc(F)cc(N5CCNCC5)c4)CC3)ccc2O[C@H]2CCNC2)CC1` [Compound 27, (S)-(3-(4-(tert-butyl)piperidin-1-yl)-4-(pyrrolidin-3-yloxy)phenyl)(4-(3-fluoro-5-(piperazin-1-yl)phenoxy)piperidin-1-yl)methanone dihydrochloride], on β-catenin/BCL9 PPI, the inhibition constant Ki is no more than 30 µM and the IC50 was no more than 30 µM. Take `CC1(O)CCN(c2cc(C(=O)N3CCC(Oc4cc(F)cc(N5CCNCC5)c4)CC3)ccc2O[C@H]2CCNC2)CC1` [Compound 28]: on β-catenin/BCL9 PPI, the Ki was no more than 20 µM and the IC50 was no more than 20 µM.

With `CC(C)(O)C1CCN(c2cc(C(=O)N3CCC(Oc4cc(F)cc(N5CCNCC5)c4)CC3)ccc2O[C@H]2CCNC2)CC1` [Compound 29, (4-(3-fluoro-5-(piperazin-1-yl)phenoxy)piperidin-1-yl)(3-(4-(2-hydroxypropan-2-yl)piperidin-1-yl)-4-(pyrrolidin-3-yloxy)phenyl)methanone], at β-catenin/BCL9 PPI, the Ki was no more than 50 µM and the IC50 is no more than 50 µM. For `CC(C)(C)[C@H]1CC[C@H](c2cc(C(=O)N3CCC(Oc4cc(N5CCNCC5)ccc4C#N)CC3)ccc2O[C@H]2CCNC2)CC1` [Compound 45], at β-catenin/BCL9 PPI, the Ki is no more than 4 µM and the IC50 is no more than 4 µM.

Values taken from patent US20240208940A1, “SMALL-MOLECULE INHIBITORS FOR BETA-CATENIN/BCELL LYMPHOMA 9 PROTEIN-PROTEIN INTERACTION” (H. LEE MOFFITT CANCER CENTER AND RESEARCH INSTITUTE, INC., priority 2021, published 2024).
